In experiment [1] the target is Sucrase-isomaltase, intestinal (Rattus norvegicus) (UniProt P23739). As to the kind of experiment: Inhibition of rat intestinal sucrase using sucrose as substrate at 10 mg/ml preincubated for 10 mins before substrate addition by glucose oxidase method.
In experiment [2] the target is Lysosomal alpha-glucosidase (Rattus norvegicus) (UniProt Q6P7A9). The experiment in a line: Inhibition of rat intestinal maltase using maltose as substrate at 10 mg/ml preincubated for 10 mins before substrate addition by glucose oxidase method.
In another experiment the test system is Saccharomyces cerevisiae. As to the kind of experiment: Inhibition of bakers yeast alpha-glucosidase using p-nitrophenyl-(alpha-D-glucopyranoside) as substrate at 10 mg/ml preincubated for 10 mins before substrate addition by microplate reader.
Experiment [3] in a line: Inhibition of bakers yeast alpha-glucosidase using p-nitrophenyl-(alpha-D-glucopyranoside) as substrate preincubated for 10 mins before substrate addition by microplate reader. More on the design: species or system Saccharomyces cerevisiae.
For experiment [4], the target named is Lysosomal alpha-glucosidase (Rattus norvegicus) (UniProt Q6P7A9). Conditions: 0.1 to 1 mg/ml.
Description: Mixed type inhibition of rat intestinal maltase using maltose as substrate at 0.1 to 1 mg/ml
For experiment [5] the target is unchanged. Conditions: 0.1 to 1 mg/ml. The source holds these as a separate data set.
Description: Non-competitive inhibition of rat intestinal maltase using maltose as substrate assessed as enzyme-substrate-inhibitor complex formation at 0.1 to 1 mg/ml by Lineweaver-Burk plot analysis
The target is the same in experiment [6]. Conditions: 0.1 to 1 mg/ml. The source holds these as a separate data set.

Active and inactive are the calls of the source. The calls are words filed in the database; no cut-off is given here.

Lysosomal alpha-glucosidase (Rattus norvegicus), sequence (Q6P7A9 whole entry): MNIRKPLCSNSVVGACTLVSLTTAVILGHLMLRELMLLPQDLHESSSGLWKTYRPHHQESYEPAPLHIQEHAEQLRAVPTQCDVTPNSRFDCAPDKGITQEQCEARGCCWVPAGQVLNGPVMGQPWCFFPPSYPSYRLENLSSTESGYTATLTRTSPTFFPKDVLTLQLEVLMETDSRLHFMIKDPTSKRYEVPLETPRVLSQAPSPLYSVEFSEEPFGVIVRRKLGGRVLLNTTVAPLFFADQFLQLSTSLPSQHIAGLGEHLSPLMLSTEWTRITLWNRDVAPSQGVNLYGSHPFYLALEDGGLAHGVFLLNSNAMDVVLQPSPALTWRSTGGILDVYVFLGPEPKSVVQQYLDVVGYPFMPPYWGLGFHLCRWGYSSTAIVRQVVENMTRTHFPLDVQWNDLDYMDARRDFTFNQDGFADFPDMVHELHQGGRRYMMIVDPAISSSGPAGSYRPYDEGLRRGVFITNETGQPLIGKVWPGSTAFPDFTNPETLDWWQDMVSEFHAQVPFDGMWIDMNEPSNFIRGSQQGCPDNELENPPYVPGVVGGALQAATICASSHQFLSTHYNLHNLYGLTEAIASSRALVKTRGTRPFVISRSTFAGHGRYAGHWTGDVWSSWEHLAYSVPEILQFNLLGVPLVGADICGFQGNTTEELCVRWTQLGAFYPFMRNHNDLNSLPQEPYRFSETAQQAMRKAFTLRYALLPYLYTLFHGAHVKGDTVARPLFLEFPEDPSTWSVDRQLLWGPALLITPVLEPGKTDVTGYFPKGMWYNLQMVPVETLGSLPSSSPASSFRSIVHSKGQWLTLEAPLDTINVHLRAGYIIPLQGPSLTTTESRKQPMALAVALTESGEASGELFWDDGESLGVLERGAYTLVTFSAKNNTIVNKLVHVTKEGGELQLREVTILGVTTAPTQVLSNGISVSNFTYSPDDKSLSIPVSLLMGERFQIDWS
Sucrase-isomaltase, intestinal (Rattus norvegicus), sequence (P23739 1-1013 limits assumed): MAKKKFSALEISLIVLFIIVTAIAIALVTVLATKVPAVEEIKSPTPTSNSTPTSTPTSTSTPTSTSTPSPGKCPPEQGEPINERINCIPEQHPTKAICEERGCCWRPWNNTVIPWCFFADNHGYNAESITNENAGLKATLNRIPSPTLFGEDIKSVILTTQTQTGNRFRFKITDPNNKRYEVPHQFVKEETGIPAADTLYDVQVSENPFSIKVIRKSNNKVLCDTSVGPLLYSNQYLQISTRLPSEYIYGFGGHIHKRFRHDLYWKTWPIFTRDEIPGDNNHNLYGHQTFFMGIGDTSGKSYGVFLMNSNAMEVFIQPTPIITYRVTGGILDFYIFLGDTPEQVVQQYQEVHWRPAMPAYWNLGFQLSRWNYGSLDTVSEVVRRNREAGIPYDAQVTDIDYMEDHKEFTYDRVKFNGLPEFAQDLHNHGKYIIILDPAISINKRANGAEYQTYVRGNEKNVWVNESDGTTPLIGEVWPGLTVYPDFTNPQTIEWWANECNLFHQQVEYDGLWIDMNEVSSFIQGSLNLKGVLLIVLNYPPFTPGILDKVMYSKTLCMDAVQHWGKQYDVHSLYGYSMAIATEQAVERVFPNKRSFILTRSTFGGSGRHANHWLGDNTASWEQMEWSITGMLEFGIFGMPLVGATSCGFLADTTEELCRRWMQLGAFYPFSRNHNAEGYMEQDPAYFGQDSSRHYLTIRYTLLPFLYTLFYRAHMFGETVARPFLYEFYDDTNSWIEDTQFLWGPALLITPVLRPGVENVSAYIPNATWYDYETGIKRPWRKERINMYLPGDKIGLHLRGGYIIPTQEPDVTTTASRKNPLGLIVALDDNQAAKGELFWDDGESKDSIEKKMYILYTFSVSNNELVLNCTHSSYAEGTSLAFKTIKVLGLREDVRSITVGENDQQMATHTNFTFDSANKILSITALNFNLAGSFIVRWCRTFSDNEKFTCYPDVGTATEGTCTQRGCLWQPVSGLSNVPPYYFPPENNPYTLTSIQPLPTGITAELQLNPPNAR
Sucrase-isomaltase, intestinal (Rattus norvegicus), sequence (P23739 1014-1841 limits assumed): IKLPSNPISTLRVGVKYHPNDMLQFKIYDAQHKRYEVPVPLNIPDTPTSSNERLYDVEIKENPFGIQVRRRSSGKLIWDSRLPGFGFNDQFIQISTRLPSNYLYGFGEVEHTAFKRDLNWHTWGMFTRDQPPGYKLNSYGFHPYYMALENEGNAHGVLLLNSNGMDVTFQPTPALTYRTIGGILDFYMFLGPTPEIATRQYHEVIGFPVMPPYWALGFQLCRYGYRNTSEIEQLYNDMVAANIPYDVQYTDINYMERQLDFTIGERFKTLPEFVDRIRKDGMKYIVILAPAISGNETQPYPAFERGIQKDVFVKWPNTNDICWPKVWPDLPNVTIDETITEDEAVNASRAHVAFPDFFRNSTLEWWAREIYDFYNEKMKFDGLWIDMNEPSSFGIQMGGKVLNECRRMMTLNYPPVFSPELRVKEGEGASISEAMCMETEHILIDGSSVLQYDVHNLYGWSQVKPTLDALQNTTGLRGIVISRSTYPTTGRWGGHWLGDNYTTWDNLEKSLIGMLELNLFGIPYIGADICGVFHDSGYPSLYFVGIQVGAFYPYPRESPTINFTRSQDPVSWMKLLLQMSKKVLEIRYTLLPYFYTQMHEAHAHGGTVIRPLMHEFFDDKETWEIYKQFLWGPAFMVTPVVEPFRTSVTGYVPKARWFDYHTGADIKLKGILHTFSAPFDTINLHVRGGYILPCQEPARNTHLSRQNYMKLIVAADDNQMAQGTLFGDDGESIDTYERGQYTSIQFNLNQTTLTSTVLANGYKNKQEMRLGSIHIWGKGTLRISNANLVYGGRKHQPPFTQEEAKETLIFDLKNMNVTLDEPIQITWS

In general, inhibition refers to the change of the read-out against control, counted positive when it falls. Consider `OC[C@H]1O[C@@H](Oc2cc3c(cc2[C@H]2OC[C@H]4[C@@H]2CO[C@@H]4c2ccc4c(c2)OCO4)OCO3)[C@H](O)[C@@H](O)[C@@H]1O`, for which the inhibition (in experiment [1]; in experiment [2]; in the experiment with Saccharomyces cerevisiae) was less than 30% in each case.
As usually defined, the IC50 is the point on the concentration scale where inhibition reaches its midpoint. Low readings indicate greater potency in that assay, high ones weaker potency in that assay. Regarding `COc1cc([C@@H]2OC[C@@H]3[C@H]2CO[C@H]3c2ccc(O)c(OC)c2)ccc1O` [(+)-PINORESINOL], in experiment [1], the inhibition is less than 30%. Moreover, the midpoint of inhibition in experiment [3], the IC50, lay at 492 µM. The inhibition entry in experiment [4], in experiment [5] and in experiment [6] was “Active” in each case.
Consider `c1cc2c(cc1[C@H]1OC[C@H]3[C@@H]1CO[C@@H]3c1ccc3c(c1)OCO3)OCO2` [SESAMIN], for which the inhibition in experiment [1] and in experiment [2] was less than 30% in each case. Moreover, in experiment [3], the concentration for half-maximal inhibition (IC50) was 450 µM.
Take `c1cc2c(cc1O[C@H]1OC[C@H]3[C@@H]1CO[C@@H]3c1ccc3c(c1)OCO3)OCO2` [SESAMOLIN]: the inhibition in experiment [1] and in experiment [2] was less than 30% each time. Moreover, in experiment [3], the IC50 came out at 200 µM.
